Measurements published in patent publication US4740517A, “Antidiabetic spiro-3-heteroazolidines” (Sanwa Kagaku Kenyusho Co., Ltd., priority 1985, dated 1988).

What was measured:
[1] = biological target: T1, aldose reductase enzyme (Rattus norvegicus, UniProt P07943); test: inhibition of aldose reductase enzyme activity using water-soluble extracts of rat lenses (Kador and Sharpless procedure); type: biochemical; conditions: for inhibition at 10 µM: 10^-5 M; for inhibition at 1 µM: 10^-6 M; for inhibition at 0.1 µM: 10^-7 M; for IC50: read-out: IC50 (concentration of inhibitor which gives 50% inhibition)
T1 construct: Using water-soluble extracts of rat lenses; from tissue; host or cells: rat lens, water-soluble extract
Description: Using water-soluble extracts of rat lenses, the inhibitions of these compounds were determined.

[2] = tested on: polyol increase in sciatic nerve of galactosemic rats; test: reduction or inhibition of polyol (galactitol) increase in sciatic nerve of galactosemic rats; type: in vivo, rat; conditions: for Percent Inhibition (%) as compared to galactitol increase of the control animals: rats, 30% galactose diet, oral 10 mg/kg once a day for 8 days, sciatic nerve removed on 9th day
Description: Some spiro-3-heteroazolidine compounds according to the invention were tested to evaluate their ability on reduction or inhibition of polyol increase in sciatic nerve of galactosemic rats. To the rats, 30% galactose diet was fed and said compounds were orally administered at a dose of 10 mg/kg once a day for a period of 8 days. Control animals were received the galactose diet and were administered no such compound. One day after final administration (on 9th day from the first administration), sciatic nerves were removed for galactitol determination.

[3] = read-out: Percent Inhibition (%) of aldose reductase enzyme activity

Row | inhibition at 10 µM [1, 3] [%] | inhibition at 1 µM [1, 3] [%] | inhibition at 0.1 µM [1, 3] [%] | IC50 [1] [µM] | inhibition at 0.01 µM ([1]; 10^-8 M, read-out: Percent Inhibition (%) of aldose reductase enzyme activity) [%] | SMILES | ability to reduce or inhibit polyol increase in sciatic nerve of galactosemic rats, potency of diastereoisomers ([2]; major versus minor diastereoisomer of Example 1) | Percent Inhibition (%) as compared to galactitol increase of the control animals [2] [%] | inhibition of polyol accumulation in sciatic nerve (in words) [2]
1 | 77 | 47 | 9 | 6 | – | O=C1NC(=O)C2(CC(C(=O)O)Oc3ccc(F)cc32)N1 (stereo not drawn) [Example 1, 6-Fluoro-2,3-dihydro-2',5'-dioxo-spiro[4H-1-benzopyran-4,4'-imidazolidine]-2-carboxylic acid] | greater than that of the minor diastereoisomer | 36 | –
2 | 85 | 28 | 13 | 4 | – | O=C1NC(=O)C2(CC(CO)Oc3ccc(F)cc32)N1 (stereo not drawn) [Example 12, 6-Fluoro-2,3-dihydro-2-hydroxymethyl-spiro[4H-1-benzopyran-4,4'-imidazolidine]-2',5'-dione] | – | 40 | –
3 | 90 | 51 | 3 | 1 | – | O=C1NC(=O)C2(CC(CCl)Oc3ccc(F)cc32)N1 (stereo not drawn) [Example 13, 2-Chloromethyl-6-fluoro-2,3-dihydro-spiro[4H-1-benzopyran-4,4'-imidazolidine]-2',5'-dione] | – | 88 | –

The next lines start with the molecule.

Row | SMILES | inhibition at 10 µM [1, 3] [%] | inhibition at 1 µM [1, 3] [%] | inhibition at 0.1 µM [1, 3] [%] | IC50 [1] [µM] | inhibition at 0.01 µM ([1]; 10^-8 M, read-out: Percent Inhibition (%) of aldose reductase enzyme activity) [%] | ability to reduce or inhibit polyol increase in sciatic nerve of galactosemic rats, potency of diastereoisomers ([2]; major versus minor diastereoisomer of Example 1) | Percent Inhibition (%) as compared to galactitol increase of the control animals [2] [%] | inhibition of polyol accumulation in sciatic nerve (in words) [2]
4 | NC(=O)C1CC2(NC(=O)NC2=O)c2cc(F)ccc2O1 (stereo not drawn) [Example 2, 6-Fluoro-2,3-dihydro-2',5'-dioxo-spiro[4H-1-benzopyran-4,4'-imidazolidine]-2-carboxamide] | 93 | 85 | 15 | 0.4 | – | – | 85 | excellent
5 | CNC(=O)C1CC2(NC(=O)NC2=O)c2cc(F)ccc2O1 (stereo not drawn) [Example 3, 6-Fluoro-2,3-dihydro-N-methyl-2',5'-dioxo-spiro[4H-1-benzopyran-4,4'-imidazolidine]-2-carboxamide] | 71 | 78 | 26 | 0.5 | – | – | 31 | –
6 | CN(C)C(=O)C1CC2(NC(=O)NC2=O)c2cc(F)ccc2O1 (stereo not drawn) [Example 5, 6-Fluoro-2,3-dihydro-N,N-dimethyl-2',5'-dioxo-spiro[4H-1-benzopyran-4,4'-imidazolidine]-2-carboxamide] | 61 | 29 | 10 | 5 | – | – | 70 | excellent
7 | COc1ccc(NC(=O)C2CC3(NC(=O)NC3=O)c3cc(F)ccc3O2)cc1 (stereo not drawn) [Example 8, 6-Fluoro-2,3-dihydro-N-(4-methoxyphenyl)-2',5'-dioxo-spiro[4H-1-benzopyran-4,4'-imidazolidine]-2-carboxamide] | 81 | 81 | 65 | 0.07 | 14 | – | 26 | –
